Values of other authors in publication PMC7504348 (Molecules, 2020).

Test system: AChE
Conditions: dataset for 2D-QSAR model, Ellman's method, galantamine as reference; cited from earlier work

Row | SMILES | pIC50 (AChE dataset, Table S4)
1 | O=[N+]([O-])c1cccc(/C=C2\CNCC3=C2NC(=S)NC3c2cccc([N+](=O)[O-])c2)c1 (stereo not shown) [CHEMBL2385779] | 4.42
2 | Fc1ccccc1/C=C1\CNCC2=C1NC(=S)NC2c1ccccc1F (stereo not shown) [CHEMBL2385777] | 4.34
3 | COc1cc(/C=C/c2ccc(OCCCCCCN3CCCCC3)cc2)cc(OC)c1 [CHEMBL3133245] | 5.36
4 | NCCc1c(C(c2c[nH]c3ccccc23)C(O)CO)[nH]c2ccc(O)cc12 (stereo not shown) [CHEMBL3125443] | 4.90
5 | COc1ccc(NC(=O)Nc2nc(-c3cc4cc([N+](=O)[O-])ccc4o3)cs2)cc1 [CHEMBL3617393] | 4.47
6 | CCN(CC)Cc1cccc2[nH]c3cc(OC)ccc3c12 [CHEMBL3127217] | 4.99
7 | O=C(Nc1ccc(Cl)c(Cl)c1)Nc1nc(-c2cc3ccccc3o2)cs1 [CHEMBL3617375] | 4.28
8 | CC(C)[C@H](NC(=O)OCC(Cl)(Cl)Cl)C(=O)N[C@H](C)c1nc2ccc(F)cc2s1 [CHEMBL2334725] | 4.70
9 | CN(C)CCc1c[nH]c2ccc(O)cc12 [CHEMBL416526] | 4.94
10 | CC(C)NCc1cccc2[nH]c3cc(O)ccc3c12 [CHEMBL3127219] | 4.92
11 | COc1ccc(C2NC(=O)NC(CCc3ccc(O)c(OC)c3)=C2C(=O)CCc2ccc(O)c(OC)c2)cc1 (stereo not shown) [CHEMBL2381434] | 4.67
12 | O=C(O[C@H]1[C@H](Oc2ccc(/C=N/O)cc2)OC[C@@H](OC(=O)c2ccccc2)[C@H]1OC(=O)c1ccccc1)c1ccccc1 [CHEMBL500712] | 4.40
13 | O=C1NC2=C(CNC/C2=C\c2ccc(Br)cc2)C(c2ccc(Br)cc2)N1 (stereo not shown) [CHEMBL2385768] | 4.75
14 | COc1ccccc1NC(=O)Nc1nc(-c2cc3ccccc3o2)cs1 [CHEMBL3617362] | 4.22
15 | COc1cc2ccnc3c2c(c1OC)-c1ccccc1C3=O [CHEMBL510090] | 4.72
16 | COC(=O)[C@@H]1CCCN1CCCCCOc1ccc2c(=O)cc(-c3ccccc3)oc2c1C [CHEMBL2393074] | 4.75
17 | COc1cc(/C=C/c2ccc(OCCCN(C)Cc3ccccc3)cc2)cc(OC)c1 [CHEMBL3133250] | 4.29
18 | COc1cc(/C=C/c2ccc(OCCCCCCN(C)Cc3ccccc3)cc2)cc(OC)c1 [CHEMBL3132866] | 4.98
19 | CCN(CC)Cc1cccc2oc3cc(OC)ccc3c12 [CHEMBL3127043] | 4.98
20 | O=C(Nc1nc(-c2cc3ccccc3o2)cs1)Nc1ccccc1F [CHEMBL3617370] | 4.51
21 | CCC[C@H](NC(=O)OC(C)C)C(=O)N[C@H](C)c1nc2ccc(F)cc2s1 [CHEMBL2334732] | 4.86
22 | CC1=NCCc2c1[nH]c1cc(O)ccc21 [CHEMBL129177] | 4.47
23 | Cc1ccc(CN(C(=O)/C=C/C(=O)N(Cc2ccc(C)cc2)c2ccc(I)cc2)c2ccc(I)cc2)cc1 [CHEMBL2296125] | 4.46
24 | CC(C)[C@H](NC(=O)OCC(F)(F)C(F)F)C(=O)N[C@H](C)c1nc2ccc(F)cc2s1 [CHEMBL2334727] | 4.72

Row | SMILES | pIC50 (AChE dataset, Table S4)
25 | CCC[C@H](NC(=O)OCC(Cl)(Cl)Cl)C(=O)N[C@H](C)c1nc2ccc(F)cc2s1 [CHEMBL2334736] | 4.72
26 | CC(C)COC(=O)N[C@H](C(=O)N[C@H](C)c1nc2ccc(F)cc2s1)C(C)C [CHEMBL2334745] | 4.49
27 | COc1cc(/C=C/c2ccc(OCCCCCCN3CCC(O)CC3)cc2)cc(OC)c1 [CHEMBL3133247] | 4.81
28 | S=C1NC2=C(CNC/C2=C\c2ccc(Cl)cc2Cl)C(c2ccc(Cl)cc2Cl)N1 (stereo not shown) [CHEMBL2385784] | 4.53
29 | O=C(Nc1ccc(F)cc1)Nc1nc(-c2cc3ccccc3o2)cs1 [CHEMBL3617372] | 4.26
30 | CC(=O)OC[C@H]1O[C@@H](Oc2ccc(/C=N/NC(N)=S)cc2)[C@H](OC(C)=O)[C@@H](OC(C)=O)[C@@H]1OC(C)=O [CHEMBL517342] | 4.19
31 | Cc1ccc(CN(C(=O)/C=C/C(=O)N(Cc2ccc(C)cc2)c2ccc(F)cc2)c2ccc(F)cc2)cc1 [CHEMBL2296124] | 4.33
32 | COc1cc(/C=C/c2ccc(OCCCCCCN3CCCCC3C)cc2)cc(OC)c1 (stereo not shown) [CHEMBL3133246] | 5.45
33 | COc1cc2c(cc1O)C[N@+]1(C)CCc3cc(OC)c(OC)cc3[C@@H]1C2 [CHEMBL1270255] | 5.01
34 | O=C(Nc1ccccc1)Nc1nc(-c2cc3cc(Br)ccc3o2)cs1 [CHEMBL3617382] | 4.63
35 | O=C(Nc1ccc(F)cc1)Nc1nc(-c2cc3cc(Br)ccc3o2)cs1 [CHEMBL3617388] | 4.45
36 | S=C1NC2=C(CNC/C2=C\c2ccc(Br)cc2)C(c2ccc(Br)cc2)N1 (stereo not shown) [CHEMBL2385780] | 4.88
37 | CC(C)[C@H](NC(=O)OCCBr)C(=O)N[C@H](C)c1nc2ccc(F)cc2s1 [CHEMBL2334747] | 4.51
38 | COc1cc(/C=C/c2ccc(OCCCCCCN3CCOCC3)cc2)cc(OC)c1 [CHEMBL3133248] | 4.66
39 | COc1cccc2c1C(=O)c1c(C)cc(=O)[nH]c1C2=O [CHEMBL1269160] | 4.57
40 | O=C1NC2=C(CNC/C2=C\c2ccc(F)cc2)C(c2ccc(F)cc2)N1 (stereo not shown) [CHEMBL2385771] | 4.30
41 | O=C(Nc1ccc(F)cc1)Nc1nc(-c2cc3cc([N+](=O)[O-])ccc3o2)cs1 [CHEMBL3617396] | 4.39
42 | CCOc1ccc(N(Cc2ccccc2)C(=O)/C=C/C(=O)N(Cc2ccccc2)c2ccc(OCC)cc2)cc1 [CHEMBL2296117] | 4.18
43 | COc1cc2c(cc1O)C=[N+](C)CC2.O=C([O-])C(F)(F)F [CHEMBL1270150] | 4.73
44 | O=C(Nc1nc(-c2cc3ccccc3o2)cs1)Nc1ccccc1[N+](=O)[O-] [CHEMBL3617367] | 4.38
45 | CCOC(=O)c1c(C)nc2nc3c(c(N)c2c1-c1ccccc1)CCCC3 [CHEMBL253386] | 5.49
46 | COc1ccc2c(c1)[nH]c1c(C)nccc12 [CHEMBL269538] | 4.19
47 | CCc1ccc(N(Cc2ccccc2)C(=O)/C=C/C(=O)N(Cc2ccccc2)c2ccc(CC)cc2)cc1 [CHEMBL2296113] | 4.21
48 | COc1cc(CCC(=O)C2=C(CCc3ccc(O)c(OC)c3)NC(=O)NC2c2ccc(O)cc2)ccc1O (stereo not shown) [CHEMBL2381433] | 4.58

Row | SMILES | pIC50 (AChE dataset, Table S4)
49 | CC(C)[C@H](NC(=O)OCC(F)(F)F)C(=O)N[C@H](C)c1nc2ccc(F)cc2s1 [CHEMBL2334726] | 4.49
50 | CCCN(CCC)CCCCCCOc1ccc(/C=C/c2cc(OC)cc(OC)c2)cc1 [CHEMBL3133243] | 4.97
51 | COc1ccc(NC(=O)Nc2nc(-c3cc4cc(Br)ccc4o3)cs2)cc1 [CHEMBL3617380] | 4.49
52 | CCC[C@H](NC(=O)OCC(F)(F)C(F)(F)C(F)(F)F)C(=O)N[C@H](C)c1nc2ccc(F)cc2s1 [CHEMBL2334739] | 4.52
53 | COc1ccc2c(ccc[n+]2C)c1.[I-] [CHEMBL2018160] | 4.63
54 | Cc1ccc(NC(=O)Nc2nc(-c3cc4cc(Br)ccc4o3)cs2)cc1 [CHEMBL3617381] | 4.49
55 | Cc1nccc2c1[nH]c1ccccc12 [CHEMBL12014] | 4.23
56 | CCC[C@H](NC(=O)OCC)C(=O)N[C@H](C)c1nc2ccc(F)cc2s1 [CHEMBL2334730] | 4.64
57 | OC[C@H]1O[C@@H](Oc2ccc(/C=N/O)cc2)[C@H](O)[C@@H](O)[C@@H]1O [CHEMBL457684] | 4.78
58 | CC(C)[C@H](NC(=O)OCC(F)(F)C(F)(F)C(F)(F)F)C(=O)N[C@H](C)c1nc2ccc(F)cc2s1 [CHEMBL2334728] | 4.24
59 | O=C(Nc1ccc(Cl)cc1)Nc1nc(-c2cc3cc([N+](=O)[O-])ccc3o2)cs1 [CHEMBL3617397] | 4.52
60 | CCC[C@H](NC(=O)OCC(F)(F)F)C(=O)N[C@H](C)c1nc2ccc(F)cc2s1 [CHEMBL2334737] | 4.71
61 | CCN(CC)Cc1ccc(OCCCCCCCCCCN2CCCCC2)cc1 [CHEMBL1085869] | 5.67
62 | COc1ccc2c(c1)[nH]c1cccc(CNC(C)C)c12 [CHEMBL3127216] | 4.84
63 | O=C1NC2=C(CNC/C2=C\c2cccc3ccccc23)C(c2cccc3ccccc23)N1 (stereo not shown) [CHEMBL2385773] | 4.83
64 | CCc1ccc(N(Cc2ccc(C)cc2)C(=O)/C=C/C(=O)N(Cc2ccc(C)cc2)c2ccc(CC)cc2)cc1 [CHEMBL2296112] | 4.25
65 | CO/N=C\c1ccc(O[C@@H]2O[C@H](COC(C)=O)[C@@H](OC(C)=O)[C@H](OC(C)=O)[C@H]2OC(C)=O)cc1 [CHEMBL463856] | 4.33
66 | CCC[C@H](NC(=O)OCC(F)(F)C(F)F)C(=O)N[C@H](C)c1nc2ccc(F)cc2s1 [CHEMBL2334738] | 4.69
67 | COc1ccccc1/C=C1\CNCC2=C1NC(=O)NC2c1ccccc1OC (stereo not shown) [CHEMBL2385766] | 4.35
68 | COc1ccc2c3c([nH]c2c1)C(C)=NCC3 [CHEMBL340807] | 4.80
69 | c1ccc(CNc2ccccc2)cc1 [CHEMBL237223] | 4.59
70 | O=C1NC2=C(CNC/C2=C\c2ccc(Cl)cc2Cl)C(c2ccc(Cl)cc2Cl)N1 (stereo not shown) [CHEMBL2385772] | 4.48
